Measurements as given in US20260226067A1, “MODULATORS OF TRPML, THEIR COMPOSITIONS AND METHODS OF USE” (Caraway Therapuetics, Inc., priority 2023, published 2026).
pEC50: −log10 of the molar value.

Tests used:
Format in all cases: cell-based
Human TRPML2 = biological target: T1, Human TRPML2 (Homo sapiens, UniProt Q8IZK6); assay: Fluorescent TRPML2 assay (as for TRPML1); conditions: as TRPML1 assay with TRPML2 subtype; read-out: Human TRPML 2 EC50
T1 construct: expressed in transfected cells
T1 sequence (Q8IZK6 1-566): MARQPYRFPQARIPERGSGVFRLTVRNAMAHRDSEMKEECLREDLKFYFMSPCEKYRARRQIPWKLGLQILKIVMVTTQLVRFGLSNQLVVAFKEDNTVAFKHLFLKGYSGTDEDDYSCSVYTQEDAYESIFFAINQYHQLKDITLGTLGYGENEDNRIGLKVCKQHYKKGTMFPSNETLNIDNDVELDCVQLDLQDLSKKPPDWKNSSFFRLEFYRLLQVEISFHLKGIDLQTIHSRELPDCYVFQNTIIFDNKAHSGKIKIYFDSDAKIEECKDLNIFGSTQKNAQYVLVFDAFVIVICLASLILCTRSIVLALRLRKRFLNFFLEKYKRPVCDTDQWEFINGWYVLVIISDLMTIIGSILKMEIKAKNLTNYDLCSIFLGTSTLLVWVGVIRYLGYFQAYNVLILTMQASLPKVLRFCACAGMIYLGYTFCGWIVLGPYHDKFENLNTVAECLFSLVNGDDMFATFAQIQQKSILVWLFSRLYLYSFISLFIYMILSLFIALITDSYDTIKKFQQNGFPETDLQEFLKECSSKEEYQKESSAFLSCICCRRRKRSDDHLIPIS
Experimental: (§1) HEK-293 Trex cells were stably transfected with a construct consisting of the human coding sequence for TRPML1 cloned into the tet-inducible plasmid pCDNA5 T/O. Mutations were introduced into the TRPML1 sequence to facilitate expression on the cell surface (Silvia Vergarajauregui, Rosa Puertollano Traffic. 2006 March; 7(3): 337-353). Briefly, the cells are cultured in 150 mm round tissue culture dishes containing 20 mL of media. The day before the assay the cells are rinsed with DPBS-Ca-Mg and then treated briefly with Trypsin-EDTA. The Trypsin-EDTA is diluted with growth media, and cells are counted. 38×10^6 cells are re-plated into 150 mm round tissue culture dishes in media containing 0.5 ug/mL doxycycline to induce expression of hTRPML1.
(§2) The day of the experiment cells are lifted from the plates as above and collected by centrifugation. The cells are then suspended in dye loading buffer consisting of Ringer's solution supplemented with 0.1% Pluronic Acid and 1 micromolar Fluo4-AM dye. Cells are loaded for ~60 minutes in the dark with occasional mixing. The cells are collected by centrifugation, the loading media aspirated, and the cells resuspended in 25 mL Ringer's solution and incubated ~60 minutes in the dark. The cells are again collected by centrifugation, rinsed in Ringer's Solution and resuspended to 0.2×10^6 cells/mL in modified Ringer's solution containing 10 mM calcium.
(§3) Compounds are dissolved to a concentration of 10 millimolar with DMSO. Compound plates are created by dispensing compounds into 384 well black wall clear bottom plates (Greiner 781091). Positive and negative controls are included on each plate. Typically, different amounts of each compound are tested ranging from 100 nanoMoles (20 micromolar final concentration) decreasing in half-log steps to 31 picoMoles (6 nanomolar final concentration). Each concentration is typically tested in triplicate.
(§4) 50 microliters of dye-loaded cells are dispensed into each well of the compound assay plate created above. The fluorescence in each well is then determined with an excitation wavelength of 480 nm and an emission wavelength of 540 nm using either a Molecular Devices SpectraMax multimode plate reader or a Hamamatsu FDSS/uCell plate imager.
(§5) The resulting fluorescence for each well is exported as an ascii file and loaded into our LIMS for analysis. The percent activity of each compound at each concentration is determined by comparison to the positive and negative control wells included in each plate.
(§6) Assays for TRPML2 and TRPML3 were performed as above for TRPML1, by substituting the appropriate TRPML2 or TRPML3 subtype for the TRPML1.
(§7) EC50 values were calculated using a non-linear regression of Prism. In the table, “A” indicates an EC50 of less than 100 nM, “B” indicates an EC50 range from 100 nM to 500 nM; “C” indicates an EC50 range from 500 nM to 2 μM; and “D” indicates an EC50 greater than 2 μM.

Human TRPML3 = biological target: T2, Human TRPML3 (Homo sapiens, UniProt Q8TDD5); assay: Fluorescent TRPML3 assay (as for TRPML1); conditions: as TRPML1 assay with TRPML3 subtype; read-out: Human TRPML 3 EC50
T2 construct: expressed in transfected cells
T2 sequence (Q8TDD5 1-553): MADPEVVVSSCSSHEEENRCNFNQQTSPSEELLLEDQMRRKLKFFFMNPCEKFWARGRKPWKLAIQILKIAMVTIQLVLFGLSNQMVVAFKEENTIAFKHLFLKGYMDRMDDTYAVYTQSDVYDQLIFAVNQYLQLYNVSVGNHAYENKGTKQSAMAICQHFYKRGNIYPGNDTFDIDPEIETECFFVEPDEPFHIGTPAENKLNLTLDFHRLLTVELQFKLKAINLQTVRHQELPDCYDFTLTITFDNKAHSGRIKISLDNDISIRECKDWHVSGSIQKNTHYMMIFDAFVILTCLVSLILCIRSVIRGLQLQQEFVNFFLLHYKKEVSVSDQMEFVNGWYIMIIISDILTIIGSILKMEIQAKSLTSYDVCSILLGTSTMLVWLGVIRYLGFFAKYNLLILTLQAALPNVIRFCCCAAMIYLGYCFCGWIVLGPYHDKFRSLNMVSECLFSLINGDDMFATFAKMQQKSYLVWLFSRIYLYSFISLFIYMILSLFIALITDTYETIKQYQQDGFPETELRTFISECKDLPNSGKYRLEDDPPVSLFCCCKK
Experimental: as §1, §2, §3, §4, §5, §6, §7

human TRPML1 = human TRPML1 (Homo sapiens, UniProt Q9GZU1); assay: Fluorescent TRPML1 assay (Fluo4-AM calcium fluorescence); conditions: HEK-293 Trex cells expressing hTRPML1, Fluo4-AM fluorescence; read-out: Human TRPML 1 EC50
Experimental: as §1, §2, §3, §4, §5, §7

human TRPML1, sequence (Q9GZU1 whole entry L15A/L16A/L577A/L578A, form open): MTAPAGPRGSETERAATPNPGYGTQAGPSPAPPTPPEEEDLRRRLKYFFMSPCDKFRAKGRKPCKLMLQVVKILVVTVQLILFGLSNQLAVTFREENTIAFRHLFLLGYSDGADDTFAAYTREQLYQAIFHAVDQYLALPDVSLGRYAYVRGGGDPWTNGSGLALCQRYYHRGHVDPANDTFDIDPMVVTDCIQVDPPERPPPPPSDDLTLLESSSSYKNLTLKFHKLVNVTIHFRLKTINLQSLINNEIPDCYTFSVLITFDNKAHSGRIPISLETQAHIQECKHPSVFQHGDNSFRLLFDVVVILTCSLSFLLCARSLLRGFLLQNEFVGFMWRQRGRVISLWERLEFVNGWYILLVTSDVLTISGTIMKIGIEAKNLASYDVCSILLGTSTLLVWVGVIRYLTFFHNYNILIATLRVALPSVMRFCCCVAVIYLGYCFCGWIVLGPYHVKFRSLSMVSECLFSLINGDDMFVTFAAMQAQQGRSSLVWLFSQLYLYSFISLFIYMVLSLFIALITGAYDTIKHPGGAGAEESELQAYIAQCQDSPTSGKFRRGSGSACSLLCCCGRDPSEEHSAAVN

SMILES	pEC50 (Human TRPML2)	pEC50 (Human TRPML3)	pEC50 (human TRPML1)
C[C@@H]1CN(c2ncnc3c2c(C(F)(F)F)cn3-c2cc(C#N)ccn2)[C@@H](C)CN1C(=O)c1ccccc1 [Compound 103, 2-(4-((2S,5R)-4-benzoyl-2,5-dimethylpiperazin-1-yl)-5-(trifluoromethyl)-7H-pyrrolo[2,3-d]pyrimidin-7-yl)isonicotinonitrile]	5.70 to 6.30	> 7.00	–
C[C@H]1CN(C(=O)c2ccccc2)CCN1c1ncnc2c1c(C(F)(F)F)cn2-c1cc(C#N)ccn1 [Compound 117, (S)-2-(4-(4-benzoyl-2-methylpiperazin-1-yl)-5-(trifluoromethyl)-7H-pyrrolo[2,3-d]pyrimidin-7-yl)isonicotinonitrile]	–	5.70 to 6.30	–
C[C@@H]1CN(c2ncnc3c2c(-c2ccccc2F)cn3-c2cc(C#N)ccn2)[C@@H](C)CN1C(=O)c1ccccc1 [Compound 109, 2-(4-((2S,5R)-4-benzoyl-2,5-dimethylpiperazin-1-yl)-5-(2-fluorophenyl)-7H-pyrrolo[2,3-d]pyrimidin-7-yl)isonicotinonitrile]	6.30 to 7.00	> 7.00	> 7.00
C[C@@H]1CN(c2ncnc3c2c(N2CCC2)cn3-c2cccc(F)c2)[C@@H](C)CN1C(=O)c1ccccc1 [Compound 108, ((2R,5S)-4-(5-(azetidin-1-yl)-7-(3-fluorophenyl)-7H-pyrrolo[2,3-d]pyrimidin-4-yl)-2,5-dimethylpiperazin-1-yl)(phenyl)methanone]	5.70 to 6.30	5.70 to 6.30	> 7.00
C[C@@H]1CN(c2ncnc3c2c(C2CCC2)cn3-c2cc(C#N)ccn2)[C@@H](C)CN1C(=O)c1ccccc1 [Compound 110, 2-(4-((2S,5R)-4-benzoyl-2,5-dimethylpiperazin-1-yl)-5-cyclobutyl-7H-pyrrolo[2,3-d]pyrimidin-7-yl)isonicotinonitrile]	6.30 to 7.00	6.30 to 7.00	> 7.00
C[C@@H]1CN(c2ncnc3c2c(C(F)(F)F)cn3-c2cccc(F)c2)[C@@H](C)CN1C(=O)c1ccccc1 [Compound 106, ((2R,5S)-4-(7-(3-fluorophenyl)-5-(trifluoromethyl)-7H-pyrrolo[2,3-d]pyrimidin-4-yl)-2,5-dimethylpiperazin-1-yl)(phenyl)methanone]	< 5.70	5.70 to 6.30	> 7.00
C[C@@H]1CN(c2ncnc3c2c(N2CCC2)cn3-c2cc(C#N)ccn2)[C@@H](C)CN1C(=O)c1ccccc1 [Compound 107, 2-(5-(azetidin-1-yl)-4-((2S,5R)-4-benzoyl-2,5-dimethylpiperazin-1-yl)-7H-pyrrolo[2,3-d]pyrimidin-7-yl)isonicotinonitrile]	6.30 to 7.00	6.30 to 7.00	> 7.00
C[C@@H]1CN(c2ncnc3c2c(N2CCC2)cn3-c2cc(C#N)ccn2)[C@@H](C)CN1C(=O)c1cccc(F)c1 [Compound 114, 2-(5-(azetidin-1-yl)-4-((2S,5R)-4-(3-fluorobenzoyl)-2,5-dimethylpiperazin-1-yl)-7H-pyrrolo[2,3-d]pyrimidin-7-yl)isonicotinonitrile]	6.30 to 7.00	6.30 to 7.00	6.30 to 7.00
C[C@@H]1CN(c2ncnc3c2c(C2CCC2)cn3-c2cccc(F)c2)[C@@H](C)CN1C(=O)c1ccccc1 [Compound 111, ((2R,5S)-4-(5-cyclobutyl-7-(3-fluorophenyl)-7H-pyrrolo[2,3-d]pyrimidin-4-yl)-2,5-dimethylpiperazin-1-yl)(phenyl)methanone]	–	5.70 to 6.30	6.30 to 7.00
CC(C)c1ccccc1C(=O)N1C[C@H](C)N(c2ncnc3c2c(-c2ccccc2F)cn3-c2cc(C#N)ccn2)C[C@H]1C [Compound 120, 2-(5-(2-fluorophenyl)-4-((2S,5R)-4-(2-isopropylbenzoyl)-2,5-dimethylpiperazin-1-yl)-7H-pyrrolo[2,3-d]pyrimidin-7-yl)isonicotinonitrile]	6.30 to 7.00	> 7.00	> 7.00
C[C@@H]1CN(c2ncnc3c2c(C2CC2)cn3-c2cc(C#N)ccn2)[C@@H](C)CN1C(=O)c1ccccc1 [Compound 102, 2-(4-((2S,5R)-4-benzoyl-2,5-dimethylpiperazin-1-yl)-5-cyclopropyl-7H-pyrrolo[2,3-d]pyrimidin-7-yl)isonicotinonitrile]	< 5.70	6.30 to 7.00	> 7.00
COc1ccccc1C(=O)N1C[C@H](C)N(c2ncnc3c2c(-c2ccccc2F)cn3-c2cc(C#N)ccn2)C[C@H]1C [Compound 119, 2-(5-(2-fluorophenyl)-4-((2S,5R)-4-(2-methoxybenzoyl)-2,5-dimethylpiperazin-1-yl)-7H-pyrrolo[2,3-d]pyrimidin-7-yl)isonicotinonitrile]	6.30 to 7.00	> 7.00	> 7.00
C[C@@H]1CN(c2ncnc3c2c(C(F)(F)F)cn3-c2cc(C#N)ccn2)CCN1C(=O)c1ccccc1 [Compound 115, (R)-2-(4-(4-benzoyl-3-methylpiperazin-1-yl)-5-(trifluoromethyl)-7H-pyrrolo[2,3-d]pyrimidin-7-yl)isonicotinonitrile]	–	> 7.00	–
C[C@@H]1CN(c2ncnc3c2c(N2CCC2)cn3-c2cc(C#N)ccn2)[C@@H](C)CN1C(=O)c1ccccc1F [Compound 113, 2-(5-(azetidin-1-yl)-4-((2S,5R)-4-(2-fluorobenzoyl)-2,5-dimethylpiperazin-1-yl)-7H-pyrrolo[2,3-d]pyrimidin-7-yl)isonicotinonitrile]	6.30 to 7.00	5.70 to 6.30	6.30 to 7.00
C[C@@H]1CN(c2ncnc3c2c(-c2ccccn2)cn3-c2cc(C#N)ccn2)[C@@H](C)CN1C(=O)c1ccccc1 [Compound 118, 2-(4-((2S,5R)-4-benzoyl-2,5-dimethylpiperazin-1-yl)-5-(pyridin-2-yl)-7H-pyrrolo[2,3-d]pyrimidin-7-yl)isonicotinonitrile]	–	5.70 to 6.30	6.30 to 7.00
Cc1cn(-c2cc(C#N)ccn2)c2ncnc(N3C[C@@H](C)N(C(=O)c4ccccc4)C[C@@H]3C)c12 [Compound 104, 2-(4-((2S,5R)-4-benzoyl-2,5-dimethylpiperazin-1-yl)-5-methyl-7H-pyrrolo[2,3-d]pyrimidin-7-yl)isonicotinonitrile]	–	6.30 to 7.00	–
